# Measurements published in patent US20250313548A1 (Actio Biosciences, Inc., priority 2023, published 2025).
# Biological target: human, KCNT1 (Homo sapiens (Human), UniProt Q5JUK3)
# Test: FLIPR Tl/K Flux Assay
# Assay type: cell-based
# Conditions: HEK293 cells stably expressing human KCNT1; Tl+ flux stimulated with EC80 of agonist Loxapine
# How it was run: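 Inhibition values come from a Hill-equation fit of % inhibition versus log concentration, using normalized fluorescence (Fmax/Fmin) over a 160 s read. The read followed stimulation with Tl+ plus EC80 agonist loxapine after 30 min compound pre-incubation at 25 °C. Cells were KCNT1-expressing HEK293, dye-loaded 1 h in pH 7.4 HEPES/HBSS with 5 mM probenecid.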
# Chain of human, KCNT1 (Q5JUK3 whole entry): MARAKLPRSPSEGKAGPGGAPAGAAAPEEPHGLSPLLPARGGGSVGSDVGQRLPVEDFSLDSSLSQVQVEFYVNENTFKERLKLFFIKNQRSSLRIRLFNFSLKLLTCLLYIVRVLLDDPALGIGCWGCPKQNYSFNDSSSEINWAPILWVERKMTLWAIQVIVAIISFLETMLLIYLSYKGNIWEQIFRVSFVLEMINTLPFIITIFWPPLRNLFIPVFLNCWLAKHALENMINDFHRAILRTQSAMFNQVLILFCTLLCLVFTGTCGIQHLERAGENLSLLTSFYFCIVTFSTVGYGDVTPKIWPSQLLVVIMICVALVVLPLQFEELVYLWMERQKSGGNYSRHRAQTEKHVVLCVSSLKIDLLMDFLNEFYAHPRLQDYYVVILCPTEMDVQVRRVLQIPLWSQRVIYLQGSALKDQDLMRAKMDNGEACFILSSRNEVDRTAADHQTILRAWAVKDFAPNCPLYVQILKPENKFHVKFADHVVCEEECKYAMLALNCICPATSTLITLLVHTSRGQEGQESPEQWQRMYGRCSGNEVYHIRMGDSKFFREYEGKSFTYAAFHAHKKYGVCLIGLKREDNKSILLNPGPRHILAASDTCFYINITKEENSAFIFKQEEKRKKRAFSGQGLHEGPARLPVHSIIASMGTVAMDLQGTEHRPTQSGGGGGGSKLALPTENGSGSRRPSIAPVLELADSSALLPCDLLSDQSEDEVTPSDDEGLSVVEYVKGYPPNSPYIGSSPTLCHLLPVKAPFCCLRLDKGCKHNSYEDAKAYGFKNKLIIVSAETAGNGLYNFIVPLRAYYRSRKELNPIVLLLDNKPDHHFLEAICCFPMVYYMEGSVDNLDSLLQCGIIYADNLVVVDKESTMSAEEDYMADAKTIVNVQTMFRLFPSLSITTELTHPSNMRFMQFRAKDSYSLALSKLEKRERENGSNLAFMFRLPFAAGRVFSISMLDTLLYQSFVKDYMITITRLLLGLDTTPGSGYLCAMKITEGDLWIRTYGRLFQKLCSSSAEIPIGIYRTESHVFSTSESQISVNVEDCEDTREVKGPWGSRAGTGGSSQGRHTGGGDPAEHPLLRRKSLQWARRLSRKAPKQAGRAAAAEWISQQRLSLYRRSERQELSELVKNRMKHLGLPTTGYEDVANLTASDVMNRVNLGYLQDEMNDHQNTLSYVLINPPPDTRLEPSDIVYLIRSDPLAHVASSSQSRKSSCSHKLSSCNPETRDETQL
row,SMILES,IC50 [nM]
1,"CCOc1cc(C(=O)NC2CCCc3nn(-c4ccnc(C(F)(F)F)c4)cc32)n(C)n1 (racemic) [Compound I-22, (rac)-3-Ethoxy-1-methyl-N-(2-(2-(trifluoromethyl)pyridin-4-yl)-4,5,6,7-tetrahydro-2H-indazol-4-yl)-1H-pyrazole-5-carboxamide]",250 to 500
2,"COc1cc(-c2cc3n(n2)CCCC[C@@H]3NC(=O)c2cc(F)cc(C#N)c2)c(F)cn1 [Compound I-183a, (S)-3-Cyano-5-fluoro-N-(2-(5-fluoro-2-methoxypyridin-4-yl)-5,6,7,8-tetrahydro-4H-pyrazolo[1,5-a]azepin-4-yl)benzamide]",< 250
3,"COc1nc(C(=O)N[C@H]2CCn3nc(-c4ccnc(C(F)(F)F)c4)cc32)n(C)n1 [Compound I-210a, (S)-3-Methoxy-1-methyl-N-(2-(2-(trifluoromethyl)pyridin-4-yl)-5,6-dihydro-4H-pyrrolo[1,2-b]pyrazol-4-yl)-1H-1,2,4-triazole-5-carboxamide]",< 250
4,Cn1nc(C(F)F)cc1C(=O)N[C@H]1CCCn2nc(-c3ccnc(C(F)(F)F)c3)cc21 [Compound I-348a],< 250
5,"N#Cc1cccc(C(=O)N[C@H]2CCCCc3nn(-c4ccnc(C5CC5)c4)cc32)c1 [Compound I-335a, (S)-3-Cyano-N-(2-(2-cyclopropylpyridin-4-yl)-2,4,5,6,7,8-hexahydrocyclohepta[c]pyrazol-4-yl)benzamide]",< 250
6,N#Cc1cccc(C(=O)NC2CCCCC3OC(c4ccnc(C(F)(F)F)c4)=NC23)c1 (stereo not drawn) [Compound I-477],< 250
7,Cn1nc(C(F)(F)F)cc1C(=O)NC1CCn2nc(-c3ccnc(C(F)(F)F)c3)cc2C1 (stereo not drawn) [Compound I-468],< 250
8,"O=C(N[C@H]1CCCc2nc(-c3cc(C4CC4)ncc3F)oc21)c1cccc(OC(F)(F)F)c1 [Compound I-159a, (S)-N-(2-(2-Cyclopropyl-5-fluoropyridin-4-yl)-4,5,6,7-tetrahydrobenzo[d]oxazol-7-yl)-3-(trifluoromethoxy)benzamide]",< 250

# Continued, values first:
row,IC50 [nM],SMILES
1,< 250,Cc1cc(F)cc(C(=O)N[C@@H]2CCc3nn(-c4ccnc(C(F)(F)F)c4)cc32)c1 [Compound I-384b]
2,< 250,Cn1nc(C(F)(F)F)cc1C(=O)N[C@H]1CCCn2nc(-c3ccnc(OC(F)(F)F)c3)cc21 [Compound I-391a]
3,< 250,"CCOc1cc(-n2cc3c(n2)CCCCC3NC(=O)c2cccc(C)c2)ccn1 (racemic) [Compound I-59, (rac)-N-(2-(2-Ethoxypyridin-4-yl)-2,4,5,6,7,8-hexahydrocyclohepta[c]pyrazol-4-yl)-3-methylbenzamide]"
4,> 1000,Cn1nc(C(F)(F)F)nc1C(=O)N[C@@H]1CCCc2oc(-c3ccnc(C4CC4)c3)nc21 [Compound I-504b]
5,> 1000,"Cn1nc(C(F)(F)F)cc1C(=O)N[C@@H]1CCCc2nn(-c3ccnc(C(F)(F)F)c3)cc21 [Compound I-4b, (R)-1-Methyl-3-(trifluoromethyl)-N-(2-(2-(trifluoromethyl)pyridin-4-yl)-4,5,6,7-tetrahydro-2H-indazol-4-yl)-1H-pyrazole-5-carboxamide]"
6,< 250,CCc1[nH]nc(C(=O)N[C@H]2CCCn3nc(-c4ccnc(C(F)(F)F)c4)cc32)c1F [Compound I-439a]
7,< 250,"Cn1nc(C(F)(F)F)cc1C(=O)NC1CCCCn2nc(-c3ccnc(C4CC4)c3)cc21 (single isomer, unassigned) [Compound I-67]"
8,< 250,"Cn1nc(C(F)(F)F)cc1C(=O)N[C@H]1CCCc2oc(-c3ccnc(C4CC4)c3)nc21 [Compound I-121a, (S)—N-(2-(2-Cyclopropylpyridin-4-yl)-4,5,6,7-tetrahydrobenzo[d]oxazol-4-yl)-1-methyl-3-(trifluoromethyl)-1H-pyrazole-5-carboxamide]"
9,< 250,C#Cc1cc(-n2cc3c(n2)CC[C@@H]3NC(=O)c2cc(C(F)(F)F)nn2C)ccn1 [Compound I-78a]
10,< 250,Cc1nc(C(F)(F)F)sc1C(=O)N[C@H]1CCCn2nc(-c3ccnc(C(F)(F)F)c3)cc21 [Compound I-358a]
